According to PMC11277489, “Novel Piperazine Derivatives of Vindoline as Anticancer Agents” (International Journal of Molecular Sciences, 2024):
Where two headings read alike, the source gives them in different places.

How the values were obtained:
Format in all cases: cell-based
786–0 = experiment: NCI60 five-dose screen, Renal Cancer; conditions: Homo sapiens
DU-145 = experiment: NCI60 five-dose screen, Prostate Cancer; conditions: Homo sapiens
TK-10 = experiment: NCI60 five-dose screen, Renal Cancer; conditions: Homo sapiens
HCC-2998 = experiment: NCI60 five-dose screen, Colon Cancer; conditions: Homo sapiens
MDA-MB-468 = experiment: NCI60 five-dose screen, Breast Cancer; conditions: Homo sapiens
OVCAR-8 = experiment: NCI60 five-dose screen, Ovarian Cancer; conditions: Homo sapiens
M14 = experiment: NCI60 five-dose screen, Melanoma; conditions: Homo sapiens
HT29 = experiment: NCI60 five-dose screen, Colon Cancer; conditions: Homo sapiens, HT-29
MOLT-4 = experiment: NCI60 five-dose screen, Leukemia; conditions: Homo sapiens
MDA-MB231ATCC = experiment: NCI60 five-dose screen, Breast Cancer; conditions: Homo sapiens, MDA-MB-231
SNB-19 = experiment: NCI60 five-dose screen, CNS Cancer; conditions: Homo sapiens
MALME-3M = experiment: NCI60 five-dose screen, Melanoma; conditions: Homo sapiens
OVCAR-5 = experiment: NCI60 five-dose screen, Ovarian Cancer; conditions: Homo sapiens
RPMI-8226 = experiment: NCI60 five-dose screen, Leukemia; conditions: Homo sapiens
SK-MEL-28 = experiment: NCI60 five-dose screen, Melanoma; conditions: Homo sapiens
[1] = system: 60 human tumor cell lines (NCI60); experiment: NCI60 five-dose screen, whole panel and sub-panel means
KM12 = experiment: NCI60 five-dose screen, Colon Cancer; conditions: Homo sapiens
SR = experiment: NCI60 five-dose screen, Leukemia; conditions: Homo sapiens
NCI-H322M = experiment: NCI60 five-dose screen, Non-small Cell Lung Cancer; conditions: Homo sapiens
COLO 205 = experiment: NCI60 five-dose screen, Colon Cancer; conditions: Homo sapiens
UACC-62 = experiment: NCI60 five-dose screen, Melanoma; conditions: Homo sapiens
CAKI-1 = experiment: NCI60 five-dose screen, Renal Cancer; conditions: Homo sapiens
UO-31 = experiment: NCI60 five-dose screen, Renal Cancer; conditions: Homo sapiens
IGROV1 = experiment: NCI60 five-dose screen, Ovarian Cancer; conditions: Homo sapiens, IGROV-1
SF-295 = experiment: NCI60 five-dose screen, CNS Cancer; conditions: Homo sapiens
HS 578T = experiment: NCI60 five-dose screen, Breast Cancer; conditions: Homo sapiens
SK-OV-3 = experiment: NCI60 five-dose screen, Ovarian Cancer; conditions: Homo sapiens
HCT-116 = experiment: NCI60 five-dose screen, Colon Cancer; conditions: Homo sapiens
HOP-92 = experiment: NCI60 five-dose screen, Non-small Cell Lung Cancer; conditions: Homo sapiens
MDA-MB-435 = experiment: NCI60 five-dose screen, Melanoma; conditions: Homo sapiens
MCF7 = experiment: NCI60 five-dose screen, Breast Cancer; conditions: Homo sapiens
CCRF-CEM = experiment: NCI60 five-dose screen, Leukemia; conditions: Homo sapiens
SN12C = experiment: NCI60 five-dose screen, Renal Cancer; conditions: Homo sapiens
EKVX = experiment: NCI60 five-dose screen, Non-small Cell Lung Cancer; conditions: Homo sapiens
[2] = Leukemia, five-dose screen, read-out: GI50

CC[C@]12C=CCN3CC[C@@]4(c5ccc(OC)cc5N(C)[C@H]4[C@@](O)(C(=O)OC)[C@@H]1OC(=O)CCC(=O)N1CCN(C(c4ccc(F)cc4)c4ccc(F)cc4)CC1)[C@@H]32 [Compound 31]
GI50 (786–0; 786–0, Renal Cancer, five-dose screen, read-out: GI50): 2.47 µM
GI50 (DU-145; DU-145, Prostate Cancer, five-dose screen, read-out: GI50): 2.67 µM
GI50 (TK-10; TK-10, Renal Cancer, five-dose screen, read-out: GI50): 2.57 µM
GI50 (HCC-2998; HCC-2998, Colon Cancer, five-dose screen, read-out: GI50): 1.24 µM
GI50 (MDA-MB-468; MDA-MB-468, Breast Cancer, five-dose screen, read-out: GI50): 1.2 µM
GI50 (OVCAR-8; OVCAR-8, Ovarian Cancer, five-dose screen, read-out: GI50): 3.18 µM
GI50 (M14; M14, Melanoma, five-dose screen, read-out: GI50): 3.55 µM
GI50 (HT29; HT29, Colon Cancer, five-dose screen, read-out: GI50): 1.76 µM
GI50 (MOLT-4; MOLT-4, Leukemia, five-dose screen, read-out: GI50): 1.35 µM
GI50 (MDA-MB231ATCC; MDA-MB231ATCC, Breast Cancer, five-dose screen, read-out: GI50): 3.02 µM
GI50 (SNB-19; SNB-19, CNS Cancer, five-dose screen, read-out: GI50): 3.58 µM
GI50 (MALME-3M; MALME-3M, Melanoma, five-dose screen, read-out: GI50): 2.2 µM
GI50 (OVCAR-5; OVCAR-5, Ovarian Cancer, five-dose screen, read-out: GI50): 2.18 µM
GI50 (RPMI-8226; RPMI-8226, Leukemia, five-dose screen, read-out: GI50): 1.42 µM
GI50 (SK-MEL-28; SK-MEL-28, Melanoma, five-dose screen, read-out: GI50): 3.26 µM
GI50 ([1]; Homo sapiens, 60 cell, mean over all 60 cell lines, read-out: GI50 Mean): < 4 µM
GI50 ([1]; Homo sapiens, mean over Breast Cancer panel, read-out: GI50 Mean): 2 µM
GI50 ([1]; Homo sapiens, mean over CNS Cancer panel, read-out: GI50 Mean): 2.6 µM
GI50 ([1]; Homo sapiens, mean over Colon Cancer panel, read-out: GI50 Mean): 2.23 µM
GI50 ([1]; Homo sapiens, mean over Leukemia panel, read-out: GI50 Mean): 1.89 µM
GI50 ([1]; Homo sapiens, mean over Melanoma panel, read-out: GI50 Mean): 2.4 µM
GI50 ([1]; Homo sapiens, mean over Non-small Cell Lung Cancer panel, read-out: GI50 Mean): 2.59 µM
GI50 ([1]; Homo sapiens, mean over Ovarian Cancer panel, read-out: GI50 Mean): 2.15 µM
GI50 ([1]; Homo sapiens, mean over Prostate Cancer panel, read-out: GI50 Mean): 2.27 µM
GI50 ([1]; Homo sapiens, mean over Renal Cancer panel, read-out: GI50 Mean): 2.33 µM
GI50 ([1]; mean over all 60 cell lines, read-out: GI50 Mean): 2.29 µM
GI50 (KM12; KM12, Colon Cancer, five-dose screen, read-out: GI50): 2.36 µM
GI50 (SR; [2]): 1.63 µM
GI50 (NCI-H322M; Non-small Cell Lung Cancer, five-dose screen, read-out: GI50): 4.99 µM
GI50 (COLO 205; COLO 205, Colon Cancer, five-dose screen, read-out: GI50): 2.82 µM
GI50 (UACC-62; UACC-62, Melanoma, five-dose screen, read-out: GI50): 1.92 µM
GI50 (CAKI-1; CAKI-1, Renal Cancer, five-dose screen, read-out: GI50): 3.07 µM
GI50 (UO-31; UO-31, Renal Cancer, five-dose screen, read-out: GI50): 2.32 µM
GI50 (IGROV1; IGROV1, Ovarian Cancer, five-dose screen, read-out: GI50): 2.5 µM
GI50 (SF-295; SF-295, CNS Cancer, five-dose screen, read-out: GI50): 2.11 µM
GI50 (HS 578T; HS 578T, Breast Cancer, five-dose screen, read-out: GI50): 1.74 µM
GI50 (SK-OV-3; SK-OV-3, Ovarian Cancer, five-dose screen, read-out: GI50): 2.02 µM
GI50 (HCT-116; HCT-116, Colon Cancer, five-dose screen, read-out: GI50): 2.72 µM
GI50 (HOP-92; HOP-92, Non-small Cell Lung Cancer, five-dose screen, read-out: GI50): 1.99 µM
GI50 (MDA-MB-435; MDA-MB-435, Melanoma, five-dose screen, read-out: GI50): 2.7 µM
GI50 (MCF7; MCF7, Breast Cancer, five-dose screen, read-out: GI50): 1.74 µM
GI50 (CCRF-CEM; [2]): 2.11 µM
GI50 (SN12C; Renal Cancer, five-dose screen, read-out: GI50): 1.47 µM

CC[C@]12C=CCN3CC[C@@]4(c5ccc(OC)cc5N(C)[C@H]4[C@@](O)(C(=O)OC)[C@@H]1OC(=O)CCCN1CCN(C(c4ccc(F)cc4)c4ccc(F)cc4)CC1)[C@@H]32 [Compound 25]
GI50 (786–0; 786-0): 1.58 µM
GI50 (DU-145; DU-145): 1.78 µM
GI50 (TK-10; TK-10): 1.51 µM
GI50 (HCC-2998; HCC 2998): 1.66 µM
GI50 (MDA-MB-468; MDA-MB-468): 1.51 µM
GI50 (OVCAR-8; OVCAR-8): 2.09 µM
GI50 (M14; M14): 1.91 µM
GI50 (HT29): 1.91 µM
GI50 (MOLT-4; MOLT-4): 1.45 µM
GI50 (MDA-MB231ATCC): 1.58 µM
GI50 (SNB-19; SNB-19): 1.66 µM
GI50 (MALME-3M; Malme-3M): 1.51 µM
GI50 (OVCAR-5; OVCAR-5): 1.66 µM
GI50 (RPMI-8226; RPMI-8226): 1.95 µM
GI50 (SK-MEL-28; SK-MEL-28): 1.74 µM
GI50 ([1]; Homo sapiens, 60 cell, read-out: GI50 Mean, mean over all 60 cell lines): 1.85 µM
GI50 ([1]; Homo sapiens, on almost all cell lines, five-dose screen): < 2 µM
GI50 ([1]; Homo sapiens, read-out: GI50 Mean, mean over Breast Cancer panel): 1.67 µM
GI50 ([1]; Homo sapiens, read-out: GI50 Mean, mean over CNS Cancer panel): 2.21 µM
GI50 ([1]; Homo sapiens, read-out: GI50 Mean, mean over Colon Cancer panel): 1.73 µM
GI50 ([1]; Homo sapiens, read-out: GI50 Mean, mean over Leukemia panel): 1.76 µM
GI50 ([1]; Homo sapiens, read-out: GI50 Mean, mean over Melanoma panel): 1.78 µM
GI50 ([1]; Homo sapiens, read-out: GI50 Mean, mean over Non-small Cell Lung Cancer panel): 1.85 µM
GI50 ([1]; Homo sapiens, read-out: GI50 Mean, mean over Ovarian Cancer panel): 1.73 µM
GI50 ([1]; Homo sapiens, read-out: GI50 Mean, mean over Prostate Cancer panel): 1.65 µM
GI50 ([1]; Homo sapiens, read-out: GI50 Mean, mean over Renal Cancer panel): 2.18 µM
GI50 (KM12; KM12): 1.78 µM
GI50 (SR): 1.7 µM
GI50 (NCI-H322M): 1.95 µM
GI50 (COLO 205; COLO 205): 1.66 µM
GI50 (UACC-62; UACC-62): 1.78 µM
GI50 (CAKI-1; CAKI-1): 1.48 µM
GI50 (UO-31; UO-31): 1.66 µM
GI50 (IGROV1): 1.38 µM
GI50 (SF-295; SF-295): 1.7 µM
GI50 (HS 578T; Hs-578T): 1.78 µM
GI50 (SK-OV-3; SK-OV-3): 1.55 µM
GI50 (EKVX): 1.7 µM
GI50 (HCT-116; HCT-116): 1.78 µM
GI50 (HOP-92; HOP-92): 1.35 µM
GI50 (MDA-MB-435; MDA-MB-435): 1.66 µM
GI50 (MCF7; MCF7): 1.7 µM
GI50 (CCRF-CEM): 2.04 µM
GI50 (SN12C): 1.66 µM
